Test [1] concerns the target AaDOP2 (Aedes aegypti, UniProt H6D5H2). Nature of the test: HTRF cAMP accumulation concentration response assay (Cisbio Dynamic 2). In kind it is cell-based. The conditions noted are these: for IC50 ± S.E.M. (nM), HTRF cAMP assay: AaDOP2 expressing cells in the presence of dopamine, No Inhibition = <10% inhibition at 3 μM test compound.
In test [2] the target is Isdop2 (Ixodes scapularis, UniProt A0ACM8DGL0). Put plainly: cell-based. The following applies: for inhibition at 10 µM: read-out: % Inhibition (of response to dopamine), Isdop2 screen.
The subject of test [3] is Ae. aegypti L3 larvae. Nature of the test: whole plant or invertebrate. The following applies: Aedes aegypti.
Where [4] appears, read: 10 μM compound, footnote 3 mM dopamine.
Setting [5] is: 24 h, read-out: Toxicity to Aedes aegypti larvae (mortality) 24 hours, 400 μM, L3 larvae, three independent experiments.
The mark [6] stands for this setting: 48 h, read-out: Toxicity to Aedes aegypti larvae (mortality) 48 hours, 400 μM, L3 larvae, three independent experiments.
Where [7] appears, read: 72 h, read-out: Toxicity to Aedes aegypti larvae (mortality) 72 hours, 400 μM, L3 larvae, three independent experiments.
[8] abbreviates: 0.5 h, read-out: percent mortality 0.5 hr, 400 uM, L3 larvae, value for this scoring time.
[9] abbreviates: 1 h, read-out: percent mortality 1 hr, 400 uM, L3 larvae, per scoring time.
The mark [10] stands for this setting: 2 h, read-out: percent mortality 2 hr, 400 uM, L3 larvae, per scoring time.
The mark [11] stands for this setting: 3 h, read-out: percent mortality 3 hr, 400 uM, L3 larvae, per scoring time.
Where [12] appears, read: 4 h, read-out: percent mortality 4 hr, 400 uM, L3 larvae, per scoring time.
[13] abbreviates: 24 h, read-out: percent mortality 24 hr, 400 uM, L3 larvae, per scoring time.
[14] abbreviates: 48 h, read-out: percent mortality 48 hr, 400 uM, L3 larvae, per scoring time.
Setting [15] is: 72 h, read-out: Cumulative % Mortality (72 hrs), 400 uM, L3 larvae.
The mark [16] stands for this setting: 72 h, read-out: percent mortality 72 hr, 400 uM, L3 larvae, per scoring time.
[17] abbreviates: […], read-out: percent mortality […], 400 uM, L3 larvae, per scoring time.

Counter-ions that a name gives are not always drawn. Like-named read-outs stand apart in the source and are kept apart here.

Chain of AaDOP2 (H6D5H2 entry or part of it): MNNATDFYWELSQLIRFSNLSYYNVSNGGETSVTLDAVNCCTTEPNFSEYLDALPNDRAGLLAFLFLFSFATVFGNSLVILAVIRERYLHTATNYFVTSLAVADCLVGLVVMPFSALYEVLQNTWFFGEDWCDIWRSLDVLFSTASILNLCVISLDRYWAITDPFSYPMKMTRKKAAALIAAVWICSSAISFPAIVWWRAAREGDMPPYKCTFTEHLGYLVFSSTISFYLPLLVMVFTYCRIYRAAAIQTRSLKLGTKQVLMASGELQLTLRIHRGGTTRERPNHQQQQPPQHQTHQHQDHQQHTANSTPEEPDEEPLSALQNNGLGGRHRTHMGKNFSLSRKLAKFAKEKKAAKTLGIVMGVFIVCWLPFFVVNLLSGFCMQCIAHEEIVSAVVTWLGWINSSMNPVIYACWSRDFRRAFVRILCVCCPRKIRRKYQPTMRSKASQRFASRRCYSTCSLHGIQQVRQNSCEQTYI
Chain of Isdop2 (A0ACM8DGL0 entry or part of it): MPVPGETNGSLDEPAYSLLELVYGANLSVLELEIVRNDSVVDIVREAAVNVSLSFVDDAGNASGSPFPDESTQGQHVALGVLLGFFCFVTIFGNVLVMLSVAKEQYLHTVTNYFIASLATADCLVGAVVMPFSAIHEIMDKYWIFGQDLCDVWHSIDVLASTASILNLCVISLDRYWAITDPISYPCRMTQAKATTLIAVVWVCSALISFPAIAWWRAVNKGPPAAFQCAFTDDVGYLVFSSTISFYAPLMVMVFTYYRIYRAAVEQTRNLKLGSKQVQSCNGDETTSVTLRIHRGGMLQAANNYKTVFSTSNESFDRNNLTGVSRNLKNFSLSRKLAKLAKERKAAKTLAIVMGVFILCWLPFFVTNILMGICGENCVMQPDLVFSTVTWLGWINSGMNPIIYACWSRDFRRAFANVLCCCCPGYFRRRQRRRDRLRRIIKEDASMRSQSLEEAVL

As a reminder, the IC50 is the concentration at which inhibition is half-maximal. As to `CC(COc1ccccc1Cc1ccccc1)N1CCCCC1` (racemic) [Benproperine phosphate, (RS)-1-[2-(2-benzylphenoxy)-1-methylethyl]piperidine], the IC50 in test [1] (in vitro Concentration Response Curve assay, n = 2, relative to control antagonist Amitriptyline, read-out: Avg IC50) stood at 4.51 µM.

Broadly, the inhibition is the relative decrease from the control value, in per cent. In the case of `CN1CCN2c3ccccc3Cc3ccccc3C2C1` (racemic) [Mianserin, ((±)-2-methyl-1,2,3,4,10,14b-hexahydrodibenzo[c,f]pyrazino [1,2-a]azepine)], in test [2], the inhibition at 10 µM stood at 87%.

Take `CSc1ccc2c(c1)N(CCC1CCCCN1C)c1ccccc1S2` (racemic) [Thioridazine, 10-{2-[(RS)-1-Methylpiperidin-2-yl]ethyl}-2-methylsulfanylphenothiazine]: the inhibition at 10 µM in test [2] is 85%.

For `COC1=C(OC)C(=O)c2ccccc2C1=O` [2,3-Dimethoxy-1,4-naphthoquinone], in test [2], the inhibition at 10 µM was found to be 68%.

`CN1[C@@H]2CC[C@H]1C[C@@H](OC(c1ccccc1)c1ccccc1N)C2` (stereo partly drawn) [Aminobenztropine]: in test [2], the inhibition at 10 µM was 71%.

Regarding `Cc1ccc(/N=C/N(C)/C=N/c2ccc(C)cc2C)c(C)c1` [Amitraz], the “IC50 ± S.E.M. (nM), HTRF cAMP assay” value in test [1] is given as “No Inhibition^a”.

Turning to `Clc1ccc2c(c1)C(N1CCNCC1)=Nc1ccccc1O2` [Amoxapine, 2-Chloro-11-(piperazin-1-yl)dibenzo[b,f][1,4]oxazepine], the inhibition at 10 µM in test [2] came out at 92%.

Regarding `O=c1cc(-c2ccc(O)cc2)oc2cc(O)cc(O)c12` [Apigenin], the inhibition at 10 µM in test [2] is 98%.

Take `CN1CCCC(n2nc(Cc3ccc(Cl)cc3)c3ccccc3c2=O)CC1` (stereo not drawn) [Azelastine HCl, 4-[(4-chlorophenyl)methyl]-2-(1-methylazepan-4-yl)phthalazin-1-one hydrochloride]: the IC50 in test [1] stood at 47.5 µM.

As for `COc1ccccc1N1CCN(CCCCNC(=O)c2ccc3ccccc3c2)CC1` [BP 897], the inhibition at 10 µM in test [2] was found to be 71%.

As for `O=C1CC2(CCCC2)CC(=O)N1CCCCN1CCN(c2ncccn2)CC1` [Buspirone], the “IC50 ± S.E.M. (nM), HTRF cAMP assay” value in test [1] is listed as “No Inhibition^a”.

For the compound `CCn1cnc2c(Nc3cccc(Cl)c3)nc(N[C@@H]3CCCC[C@@H]3N)nc21.Cl` [CGP-74514A hydrochloride], the “% Inhibition (of response to dopamine), Isdop2 screen” value (“% Inhibition” below) in test [2] is listed as 98%.

On to `CN(C)CCC=C1c2ccccc2C=Cc2ccccc21` [Cyclobenzaprine], for which the inhibition at 10 µM in test [2] was 95%.

On to `CN1CCC(=C2c3ccccc3C=Cc3ccccc32)CC1` [Cyproheptadine], for which the inhibition at 10 µM in test [2] is 93%.

On to `OC[C@H]1O[C@@H](n2cnc3ccccc32)[C@H](O)[C@@H]1O` [D-ribofuranosylbenzimidazole], for which the “% Inhibition” value in test [2] (setting [4]) is given as 82%.

For the compound `O=c1c(-c2ccc(O)cc2)coc2cc(O)ccc12` [Daidzein], in test [2], the inhibition at 10 µM was 77%.

For `Cc1cc(N)c2ccccc2[n+]1CCCCCCCCCC[n+]1c(C)cc(N)c2ccccc21` [Dequalinium dichloride], the inhibition at 10 µM in test [2] was 75%.

With `C[C@@H]1O[C@@H](O[C@H]2C[C@@H](O)[C@]3(CO)[C@H]4[C@H](O)C[C@]5(C)[C@@H]([C@@H]6COC(=O)C6)CC[C@]5(O)[C@@H]4CC[C@]3(O)C2)[C@H](O)[C@H](O)[C@H]1O` [Dihydroouabain], in test [2] (setting [4]), the “% Inhibition” value is 76%.

Regarding `c1ccc2c(c1)[I+]c1ccccc1-2` [Diphenyleneiodonium chloride], in test [2], the inhibition at 10 µM came out at 78%.

The term mortality denotes the percentage killed. Take `CNCCC(Oc1ccc(C(F)(F)F)cc1)c1ccccc1` (stereo not drawn) [Fluoxetine]: the mortality at 400 µM was determined as 43% in test [3] (setting [5]), 53% in test [3] (setting [6]) and 53% in test [3] (setting [7]).

With `OCCN1CCN(CCCN2c3ccccc3Sc3ccc(C(F)(F)F)cc32)CC1` [Fluphenazine, 2-[4-[3-[2-(trifluoromethyl)-10H-phenothiazin-10-yl]propyl]piperazin-1-yl]ethanol], the inhibition at 10 µM in test [2] is 79%.

In the case of `O=C1Nc2ccc(I)cc2/C1=C/c1cc(Br)c(O)c(Br)c1` [GW5074], the “% Inhibition” value in test [2] turned out to be 81%.

In the case of `O=c1c(-c2ccc(O)cc2)coc2cc(O)cc(O)c12` [Genistein], the inhibition at 10 µM in test [2] was 71%.

With `CC1CNCCN1S(=O)(=O)c1cccc2cnccc12.Cl.Cl` (stereo not drawn) [H-7 dihydrochloride], in test [2], the “% Inhibition” value is 73%.

As to `O=C1Nc2ccccc2/C1=C1/Nc2ccccc2/C1=N\O` [Indirubin-3′-oxime], in test [2], the “% Inhibition” value was determined as 93%.

For `O=C(c1ccc(F)cc1)C1CCN(CCn2c(=O)[nH]c3ccccc3c2=O)CC1` [Ketanserin], the mortality at 400 µM in test [3] (setting [8]), in test [3] (setting [9]), in test [3] (setting [10]), in test [3] (setting [11]), in test [3] (setting [12]) and in test [3] (setting [5]) was 0% each time. The mortality at 400 µM in test [3] (setting [13]), in test [3] (setting [6]), in test [3] (setting [14]), in test [3] (setting [15]), in test [3] (setting [7]) and in test [3] (setting [16]) was 0% throughout. Besides, in test [3] (setting [17]), the mortality at 400 µM turned out to be 0%.

With `COc1ccccc1N1CCN(CCCCN2C(=O)c3ccccc3C2=O)CC1` [NAN-190 hydrobromide], the inhibition at 10 µM in test [2] worked out at 69%.

In the case of `C[C@@H]1O[C@@H](O[C@H]2C[C@@H](O)[C@]3(CO)[C@H]4[C@H](O)C[C@]5(C)[C@@H](C6=CC(=O)OC6)CC[C@]5(O)[C@@H]4CC[C@]3(O)C2)[C@H](O)[C@H](O)[C@H]1O` [Ouabain], the inhibition at 10 µM in test [2] amounted to 86%.

Regarding `COc1cccc(-c2cc(=O)c3ccccc3o2)c1N` [PD 98,059], the “% Inhibition” value in test [2] (setting [4]) turned out to be 87%.

As to `NC(=Nc1ccccc1)NC(=O)c1nc(Cl)c(N)nc1N` [Phenamil methanesulfonate], the inhibition at 10 µM in test [2] worked out at 72%.

Regarding `CN1CCN(CC(=O)N2c3ccccc3C(=O)Nc3cccnc32)CC1` [Pirenzepine], the mortality at 400 µM in test [3] (setting [8]), in test [3] (setting [9]), in test [3] (setting [10]), in test [3] (setting [11]), in test [3] (setting [12]) and in test [3] (setting [5]) was 0% throughout. Moreover, the mortality at 400 µM in test [3] (setting [13]), in test [3] (setting [6]), in test [3] (setting [14]), in test [3] (setting [15]), in test [3] (setting [7]) and in test [3] (setting [16]) was 0% in each case. Moreover, the mortality at 400 µM in test [3] (setting [17]) was 0%.

As for `CN1CCN(CCCN2c3ccccc3Sc3ccc(Cl)cc32)CC1` [Prochlorperazine, 2-chloro-10-[3-(4-methyl-1-piperazinyl)propyl]-10H-phenothiazine], the inhibition at 10 µM in test [2] turned out to be 86%.

On to `CCN(CC)C(=O)N[C@H]1C[C@@H]2c3cccc4[nH]cc(c34)C[C@H]2N(C)C1` [R(+)-Terguride], for which, in test [2], the “% Inhibition” value was determined as 68%.

Turning to `Cc1nc2n(c(=O)c1CCN1CCC(c3noc4cc(F)ccc34)CC1)CCCC2` [Risperidone, 4-[2-[4-(6-fluorobenzo[d]isoxazol-3-yl)-1-piperidyl]ethyl]-3-methyl-2,6-diazabicyclo[4.4.0]deca-1,3-dien-5-one], the inhibition at 10 µM in test [2] turned out to be 100%.

As to `CC[C@H](CO)Nc1nc(NCc2ccccc2)c2ncn(C(C)C)c2n1` [Roscovitine], the inhibition at 10 µM in test [2] was 91%.

For the compound `C=C(C)[C@H]1Cc2c(ccc3c2O[C@@H]2COc4cc(OC)c(OC)cc4[C@@H]2C3=O)O1` [Rotenone], the inhibition at 10 µM in test [2] came to 77%.

For `CC(=O)c1c(O)c(C)c(O)c(Cc2c(O)c3c(c(C(=O)/C=C/c4ccccc4)c2O)OC(C)(C)C=C3)c1O` [Rottlerin], in test [2], the inhibition at 10 µM worked out at 97%.

As for `Cc1ccc(O)c(N=Nc2ccccc2)n1` [SIB 1757], in test [2] (setting [4]), the “% Inhibition” value is listed as 100%.

On to `CN1CCc2cccc(Cl)c2CC1` [SKF86466], for which, in test [2] (setting [4]), the “% Inhibition” value is on record as 86%.

Consider `Br.CN1CCc2cc(O)c(O)cc2C(c2ccccc2)C1` (stereo not drawn) [SKF 75670 hydrobromide], for which the “% Inhibition” value in test [2] was 68%.

`C[n+]1cc2c3c(ccc2c2ccc4cc5c(cc4c21)OCO5)OCO3` [Sanguinarine chloride]: in test [2], the inhibition at 10 µM stood at 100%.

`CN1CCN(CCCN2c3ccccc3Sc3ccc(C(F)(F)F)cc32)CC1` [Trifluoperazine, 10-[3-(4-methylpiperazin-1-yl)propyl]-2-(trifluoromethyl)-10H-phenothiazine]: the inhibition at 10 µM in test [2] was found to be 76%.

Turning to `CC(C)(C)c1cc(C=C(C#N)C#N)cc(C(C)(C)C)c1O` [Tyrphostin A9], the “% Inhibition” value in test [2] (setting [4]) came to 87%.

Turning to `CC(C)(C)c1cc(/C=C(\C#N)C(N)=S)cc(C(C)(C)C)c1O` [Tyrphostin AG 879], in test [2], the “% Inhibition” value was 75%.

For the compound `O=C(N[C@@H](Cc1ccccc1)C(=O)CCl)OCc1ccccc1` [Z-L-Phe chloromethyl ketone], in test [2], the “% Inhibition” value amounted to 90%.

On to (±)-Butaclamol hydrochloride, for which the “% Inhibition” value in test [2] is recorded as 86%.

For the origin of these results see patent US20140350081A1, “INSECT G-COUPLED RECEPTORS USEFUL AS TARGETS FOR INSECTICIDES AND COMPOUNDS AND REAGENTS IDENTIFIED USING THE SAME” (priority 2011, published 2014).
